Measured values from US20260000656A1, “ANTIFUNGAL AGENTS WITH ENHANCED ACTIVITY IN ACIDIC PH” (Scynexis, Inc., priority 2017, published 2026).
In brackets after ≈: the same amount, converted by molar mass. Read-outs that look alike come from different tables or passages of the source.

Test system: C. albicans isolates
Experiment: Broth microdilution susceptibility (CLSI M27-A3) at different medium pH
Format: cell-based, Candida albicans
Details: Candida albicans, 24 h; for MIC50: read-out: MIC50; for MIC90: read-out: MIC90
Procedure: Ten strains each of C. glabrata and C. albicans vaginal isolates were tested. The strains were obtained from recent clinical trial patients with vulvovaginal candidiasis (VVC) prior to treatment. Candida strains were obtained from the Mycology Reference Library (MRL) at Case Western Reserve University School of Medicine, Ohio, United States.
Susceptibility testing was performed using a broth microdilution method, according to CLSI M27-A3 guidelines (CLSI. 2008. Reference Method for Broth Dilution Antifungal Susceptibility Testing of Yeasts; Approved Standard—Third Edition. Clinical and Laboratory Standards Institute, CLSI document M27-A3). Antifungals and concentrations tested were SCY-078 and micafungin (both at concentrations within the range of 0.015 to 8 μg/ml) and fluconazole (at concentrations within the range of 0.125 to 64 μg/ml). A 0.1-ml C. albicans and C. glabrata inoculum of 0.5-2.5×10^3 blastospores/ml in RPMI 1640 medium was added to each microdilution well. ATCC strains of Candida parapsilosis and Candida krusei QC isolates were also included concurrently to ensure quality control. Antifungal susceptibility testing was carried out for each isolate in RPMI 1640 at pH 7 (to mimic RPMI medium used in testing the susceptibility of yeast by the CLSI M-27A3 document), pH 5.7, and pH 4.5 (to mimic the pH of the vaginal cavity) by adjusting the pH of the media using NaOH or HCl. […] Agents Chemother., 43: 1383-1386 (1999).
[…] SCY-078 powder was manufactured by Avista, Laboratories, NC. Micafungin and fluconazole were sourced from LGM Pharma.

[1] = pH 7, 50% inhibition, pH 7.0, 24 h, 10 vaginal isolates
[2] = pH 7, 100% inhibition, pH 7.0, 24 hours, 10 isolates

MIC (pH 5.72, C. albicans MRL 34367, pH 5.72, 24 hours, read-out: MIC (100% inhibition)): 0.5 µg/mL (≈ 0.685 µM)
MIC (pH 5.72, C. albicans MRL 34372, pH 5.72, 24 hours, read-out: MIC (50% inhibition)): 0.25 µg/mL (≈ 0.342 µM)
MIC (pH 5.72, C. albicans MRL 34372, pH 5.72, 24 hours, read-out: MIC (100% inhibition)): 0.25 µg/mL (≈ 0.342 µM)
MIC (pH 5.72, C. albicans MRL 34373, pH 5.72, 24 hours, read-out: MIC (50% inhibition)): 0.25 µg/mL (≈ 0.342 µM)
MIC (pH 5.72, C. albicans MRL 34373, pH 5.72, 24 hours, read-out: MIC (100% inhibition)): 0.25 µg/mL (≈ 0.342 µM)
MIC (pH 5.72, C. albicans MRL 34374, pH 5.72, 24 hours, read-out: MIC (50% inhibition)): 0.125 µg/mL (≈ 0.171 µM)
MIC (pH 5.72, C. albicans MRL 34374, pH 5.72, 24 hours, read-out: MIC (100% inhibition)): 0.25 µg/mL (≈ 0.342 µM)
MIC (pH 5.72, C. albicans MRL 34385, pH 5.72, 24 hours, read-out: MIC (50% inhibition)): 0.25 µg/mL (≈ 0.342 µM)
MIC (pH 5.72, C. albicans MRL 34385, pH 5.72, 24 hours, read-out: MIC (100% inhibition)): 0.5 µg/mL (≈ 0.685 µM)
MIC (pH 5.72, C. albicans MRL 34389, pH 5.72, 24 hours, read-out: MIC (50% inhibition)): 0.25 µg/mL (≈ 0.342 µM)
MIC (pH 5.72, C. albicans MRL 34389, pH 5.72, 24 hours, read-out: MIC (100% inhibition)): 0.25 µg/mL (≈ 0.342 µM)
MIC (pH 5.72, C. albicans MRL 34399, pH 5.72, 24 hours, read-out: MIC (50% inhibition)): 0.25 µg/mL (≈ 0.342 µM)
MIC (pH 5.72, C. albicans MRL 34399, pH 5.72, 24 hours, read-out: MIC (100% inhibition)): 0.25 µg/mL (≈ 0.342 µM)
MIC (pH 5.72, C. albicans MRL 34408, pH 5.72, 24 hours, read-out: MIC (50% inhibition)): 0.25 µg/mL (≈ 0.342 µM)
MIC (pH 5.72, C. albicans MRL 34408, pH 5.72, 24 hours, read-out: MIC (100% inhibition)): 2 µg/mL (≈ 2.74 µM)
MIC (pH 5.72, C. albicans MRL 34449, pH 5.72, 24 hours, read-out: MIC (50% inhibition)): 0.25 µg/mL (≈ 0.342 µM)
MIC (pH 5.72, C. albicans MRL 34449, pH 5.72, 24 hours, read-out: MIC (100% inhibition)): 0.25 µg/mL (≈ 0.342 µM)
MIC50 [1]: 0.25 µg/mL (≈ 0.342 µM)
MIC90 [1]: 0.5 µg/mL (≈ 0.685 µM)
MIC50 [2]: 0.25 µg/mL (≈ 0.342 µM)
MIC90 [2]: 0.5 µg/mL (≈ 0.685 µM)
MIC (pH 7, C. albicans MRL 34366, pH 7.0, 24 hours, read-out: MIC (50% inhibition)): 0.5 µg/mL (≈ 0.685 µM)
MIC (pH 7, C. albicans MRL 34366, pH 7.0, 24 hours, read-out: MIC (100% inhibition)): 0.5 µg/mL (≈ 0.685 µM)
MIC (pH 7, C. albicans MRL 34367, pH 7.0, 24 hours, read-out: MIC (50% inhibition)): 0.125 µg/mL (≈ 0.171 µM)
MIC (pH 7, C. albicans MRL 34367, pH 7.0, 24 hours, read-out: MIC (100% inhibition)): 0.5 µg/mL (≈ 0.685 µM)
MIC (pH 7, C. albicans MRL 34372, pH 7.0, 24 hours, read-out: MIC (50% inhibition)): 0.25 µg/mL (≈ 0.342 µM)
MIC (pH 7, C. albicans MRL 34372, pH 7.0, 24 hours, read-out: MIC (100% inhibition)): 0.25 µg/mL (≈ 0.342 µM)
MIC (pH 7, C. albicans MRL 34373, pH 7.0, 24 hours, read-out: MIC (50% inhibition)): 0.25 µg/mL (≈ 0.342 µM)
MIC (pH 7, C. albicans MRL 34373, pH 7.0, 24 hours, read-out: MIC (100% inhibition)): 0.25 µg/mL (≈ 0.342 µM)
MIC (pH 7, C. albicans MRL 34374, pH 7.0, 24 hours, read-out: MIC (50% inhibition)): 0.25 µg/mL (≈ 0.342 µM)
MIC (pH 7, C. albicans MRL 34374, pH 7.0, 24 hours, read-out: MIC (100% inhibition)): 0.25 µg/mL (≈ 0.342 µM)
MIC (pH 7, C. albicans MRL 34385, pH 7.0, 24 hours, read-out: MIC (50% inhibition)): 0.25 µg/mL (≈ 0.342 µM)
MIC (pH 7, C. albicans MRL 34385, pH 7.0, 24 hours, read-out: MIC (100% inhibition)): 0.5 µg/mL (≈ 0.685 µM)
MIC (pH 7, C. albicans MRL 34389, pH 7.0, 24 hours, read-out: MIC (50% inhibition)): 0.125 µg/mL (≈ 0.171 µM)
MIC (pH 7, C. albicans MRL 34389, pH 7.0, 24 hours, read-out: MIC (100% inhibition)): 0.25 µg/mL (≈ 0.342 µM)
MIC (pH 7, C. albicans MRL 34399, pH 7.0, 24 hours, read-out: MIC (50% inhibition)): 0.25 µg/mL (≈ 0.342 µM)
MIC (pH 7, C. albicans MRL 34399, pH 7.0, 24 hours, read-out: MIC (100% inhibition)): 0.25 µg/mL (≈ 0.342 µM)
MIC (pH 7, C. albicans MRL 34408, pH 7.0, 24 hours, read-out: MIC (50% inhibition)): 0.5 µg/mL (≈ 0.685 µM)
MIC (pH 7, C. albicans MRL 34408, pH 7.0, 24 hours, read-out: MIC (100% inhibition)): 4 µg/mL (≈ 5.48 µM)
MIC (pH 7, C. albicans MRL 34449, pH 7.0, 24 hours, read-out: MIC (50% inhibition)): 0.25 µg/mL (≈ 0.342 µM)
SMILES: CC(C)[C@@H](C)[C@@]1(C)CC[C@]2(C)[C@H]3CC[C@@H]4[C@@]5(COC[C@]4(C)[C@@H](OC[C@](C)(N)C(C)(C)C)[C@H](n4ncnc4-c4ccncc4)C5)C3=CC[C@@]2(C)[C@@H]1C(=O)O [SCY-078]
